Results on 3 compounds are retold here after patent publication EP0946579B1, “NOVEL ERYTHROMYCIN DERIVATIVES, METHOD FOR PREPARING THEM AND THEIR USE AS MEDICINE” (Aventis Pharma S.A., priority 1996, dated 1998).

Format in all cases: cell-based
Assay [1] relates to Streptococcus faecium groupe D 02D3HT1. In words: Dilution method in liquid medium (MIC). The following applies: Enterococcus faecium, incubation 24 h at 37°C, read-out: concentrations minimales inhibitrices (C.M.I.). How it is done:
(§1) Méthode des dilutions en milieu liquide
(§2) On a préparé une série de tubes dans lesquels on répartit une même quantité de milieu nutritif stérile. On distribue dans chaque tube des quantités croissantes du produit à étudier, puis chaque tube est ensemencé avec une souche bactérienne. Après incubation de vingt-quatre heures à l'étuve à 37°C, l'inhibition de la croissance est appréciée par transillumination de ce qui permet de déterminer les concentrations minimales inhibitrices (C.M.I.) exprimées en microgrammes/cm^3.

For assay [2], the system named is Streptococcus mitis 02mitGR16I. In words: Dilution method in liquid medium (MIC). The following applies: incubation 24 h at 37°C, read-out: concentrations minimales inhibitrices (C.M.I.). As for the experimental part: as §1, §2
The test system of assay [3] is Staphylococcus aureus 011G025I. In words: Dilution method in liquid medium (MIC). The following applies: incubation 24 h at 37°C, read-out: concentrations minimales inhibitrices (C.M.I.). How it is done: as §1, §2
Assay [4] has as its system Streptococcus mitis 02mitCB1. The assay can be described thus: Dilution method in liquid medium (MIC). The following applies: incubation 24 h at 37°C, read-out: concentrations minimales inhibitrices (C.M.I.). As for the experimental part: as §1, §2
Assay [5] has as its system Streptococcus pneumoniae 032UC1. In words: Dilution method in liquid medium (MIC). The following applies: incubation 24 h at 37°C, read-out: concentrations minimales inhibitrices (C.M.I.). As for the experimental part:
as §1, §2

The subject of assay [6] is Streptococcus agalactiae groupe B 02B1SJ1. In words: Dilution method in liquid medium (MIC). The following applies: incubation 24 h at 37°C, read-out: concentrations minimales inhibitrices (C.M.I.). As for the experimental part: as §1, §2
For assay [7], the system named is Staphylococcus aureus 011UC4. The assay can be described thus: Dilution method in liquid medium (MIC). The following applies: incubation 24 h at 37°C, read-out: concentrations minimales inhibitrices (C.M.I.). As for the experimental part: as §1, §2
In assay [8] the test system is Streptococcus faecalis groupe D 02D2UC1. In words: Dilution method in liquid medium (MIC). The following applies: Enterococcus faecalis, incubation 24 h at 37°C, read-out: concentrations minimales inhibitrices (C.M.I.). As for the experimental part:
as §1, §2

Assay [9] relates to Staphylococcus epidermidis 012GO11I. In words: Dilution method in liquid medium (MIC). The following applies: incubation 24 h at 37°C, read-out: concentrations minimales inhibitrices (C.M.I.). How it is done: as §1, §2
Assay [10] has as its system Streptococcus pyogenes groupe A 02A1UC1. The assay can be described thus: Dilution method in liquid medium (MIC). The following applies: incubation 24 h at 37°C, read-out: concentrations minimales inhibitrices (C.M.I.). How it is done:
as §1, §2

Assay [11] deals with Streptococcus agalactiae groupe B 02B1HT1. The assay can be described thus: Dilution method in liquid medium (MIC). The following applies: incubation 24 h at 37°C, read-out: concentrations minimales inhibitrices (C.M.I.). How it is done: as §1, §2
Assay [12] has as its system Streptococcus sp groupe G 02G0GR5. In words: Dilution method in liquid medium (MIC). The following applies: incubation 24 h at 37°C, read-out: concentrations minimales inhibitrices (C.M.I.). As for the experimental part:
as §1, §2

Assay [13] has as its system Haemophilus Influenzae 351CA1. The assay can be described thus: Antibacterial activity on gram-negative strains. The following applies: result in words. As for the experimental part:
as §2

Assay [14] deals with Haemophilus Influenzae 351CB12. The assay can be described thus: Antibacterial activity on gram-negative strains. The following applies: result in words. As for the experimental part: as §2
Assay [15] relates to Haemophilus Influenzae 351HT3. The assay can be described thus: Antibacterial activity on gram-negative strains. The following applies: result in words. How it is done: as §2
Assay [16] has as its system Haemophilus Influenzae 351GR6. In words: Antibacterial activity on gram-negative strains. The following applies: result in words. As for the experimental part:
as §2

Converted amounts (≈) assume the structure as drawn.

With `CC[C@H]1OC(=O)[C@H](C)C(=O)[C@H](C)[C@@H](O[C@@H]2O[C@H](C)C[C@H](N(C)C)[C@H]2O)[C@](C)(OC)C[C@@H](C)C(=O)[C@H](C)[C@H]2N(COCCc3ccccc3)C(=O)O[C@]12C` [Ex. 3, 11,12-didéoxy-3-de[(2,6-didéoxy-3-C-méthyl-3-O-méthyl-alpha-L-ribo-hexopyranosyl)oxy]-6-O-méthyl-3-oxo-12,11-[oxycarbonyl[[(2-phényléthoxy)méthyl]imino]]-érythromycine], the MIC is at most 0.02 µg/mL in [1]; at most 0.02 µg/mL in assay [2]; 0.15 µg/mL (≈ 0.201 µM) in assay [3]; at most 0.02 µg/mL in assay [4]; at most 0.02 µg/mL in [5]; 0.04 µg/mL (≈ 0.0536 µM) in [6]. Further, the MIC in assay [7] is 0.04 µg/mL (≈ 0.0536 µM); in assay [8], at most 0.04 µg/mL; in assay [9], 0.08 µg/mL (≈ 0.107 µM); in assay [10], at most 0.02 µg/mL; in [11], at most 0.02 µg/mL; in assay [12], at most 0.02 µg/mL.

Turning to `CC[C@H]1OC(=O)[C@H](C)C(=O)[C@H](C)[C@@H](O[C@@H]2O[C@H](C)C[C@H](N(C)C)[C@H]2O)[C@](C)(OC)C[C@@H](C)C(=O)[C@H](C)[C@H]2N(COCCn3cnc(-c4cccnc4)c3)C(=O)O[C@]12C` [Ex. 2], the MIC in [1] was at most 0.02 µg/mL; in assay [2] it was at most 0.02 µg/mL; in assay [3], 0.08 µg/mL (≈ 0.0983 µM); in assay [4] it was at most 0.02 µg/mL; in assay [5] it was 0.02 µg/mL (≈ 0.0246 µM); in [6], 0.08 µg/mL (≈ 0.0983 µM). Moreover, the MIC in assay [7] was 0.08 µg/mL (≈ 0.0983 µM); in assay [8], at most 0.02 µg/mL; in [9] it was 0.08 µg/mL (≈ 0.0983 µM); in assay [10], at most 0.02 µg/mL; in assay [11], at most 0.02 µg/mL; in [12], at most 0.02 µg/mL.

As for `CC[C@H]1OC(=O)[C@H](C)C(=O)[C@H](C)[C@@H](O[C@@H]2O[C@H](C)C[C@H](N(C)C)[C@H]2O)[C@](C)(OC)C[C@@H](C)C(=O)[C@H](C)[C@H]2N(COCCOC)C(=O)O[C@]12C` [exemple 1, 11,12-didéoxy-3-de[(2,6-didéoxy-3-C-méthyl-3-O-méthyl-alpha-L-ribo-hexopyranosyl)oxy]-6-O-méthyl-3-oxo-12,11-[oxycarbonyl[[(2-méthoxyéthoxy)méthyl]imino]]-érythromycine], the “activité sur les souches bactériennes à gram⊖” value in assay [13], in assay [14], in assay [15] and in assay [16] was “activité intéressante” in each case.
